Assay results from ChEMBL document CHEMBL1154216, “Development of a novel expression, ZI MAX/K ZI, for determination of the counter-anion effect on the antimicrobial activity of tetrabutylammonium salts” (2009).

How the values were obtained:
[1] = test system: Escherichia coli; experiment: Antimicrobial activity against Escherichia coli K-12 C600 assessed as ratio of maximum zone of inhibition to concentration required to reach half maximum zone of inhibition after 24 hrs; type: functional
[2] = test system: Staphylococcus epidermidis; type: functional, ATCC 12228
Description: Antimicrobial activity against Staphylococcus epidermidis ATCC 12228 assessed as ratio of maximum zone of inhibition to concentration required to reach half maximum zone of inhibition after 24 hrs

Row | Compound | ZImax/KZI [1] [mm microL/micromol] | ZImax/KZI [2] [mm microL/micromol]
1 | CCCC[N+](CCCC)(CCCC)CCCC.Cc1ccc(S(=O)(=O)[O-])cc1 | 0 | 8.55
2 | CC(O)C(=O)[O-].CCCC[N+](CCCC)(CCCC)CCCC | 0 | 103.09
3 | CCCC[N+](CCCC)(CCCC)CCCC.O=[N+]([O-])[O-] [BIS(TETRABUTYLAMMONIUM)MONONITRATE] | 0.333 | 30.67
4 | Br.Br.CCCC[N+](CCCC)(CCCC)CCCC.[Br-] [MONO(TETRABUTYLAMMONIUM)TRIBROMIDE] | 37.59 | 48.08
5 | CC(=O)[O-].CCCC[N+](CCCC)(CCCC)CCCC [TETRABUTYLAMMONIUM ACETATE] | 4.2 | 37.88
6 | CCCC[N+](CCCC)(CCCC)CCCC.O=C([O-])c1ccccc1 [TETRABUTYLAMMONIUM BENZOATE] | 0.333 | 39.81
7 | CCCC[N+](CCCC)(CCCC)CCCC.[Br-] [TETRABUTYLAMMONIUM BROMIDE] | 0.516 | 16.69
8 | CCCC[N+](CCCC)(CCCC)CCCC.O=P([O-])(O)O [TETRABUTYLAMMONIUM DIHYDROGENPHOSPHATE] | 0 | 23.58
9 | CCCC[N+](CCCC)(CCCC)CCCC.[F-] [TETRABUTYLAMMONIUM FLUORIDE] | 0.842 | 15.82
10 | CCCC[N+](CCCC)(CCCC)CCCC.O=S(=O)([O-])O [TETRABUTYLAMMONIUM HYDROGENSULFATE] | 4.98 | 84.03
11 | CCCC[N+](CCCC)(CCCC)CCCC.[OH-] [TETRABUTYLAMMONIUM HYDROXIDE] | 4.06 | 27.17
12 | CCCC[N+](CCCC)(CCCC)CCCC.[I-] [TETRABUTYLAMMONIUM IODIDE] | 0.381 | 140.85
13 | CCCC[N+](CCCC)(CCCC)CCCC.CS(=O)(=O)[O-] [TETRABUTYLAMMONIUM METHANESULFONATE] | 0.167 | 23.53
14 | CCCC[N+](CCCC)(CCCC)CCCC.[O-][Cl+3]([O-])([O-])[O-] [TETRABUTYLAMMONIUM PERCHLORATE] | 0 | 14.77
15 | CCCC[N+](CCCC)(CCCC)CCCC.O=P[O-] [TETRABUTYLAMMONIUM PHOSPHENITE] | 0.408 | 52.08
16 | CCCC[N+](CCCC)(CCCC)CCCC.F[B-](F)(F)F [TETRABUTYLAMMONIUM TETRAFLUOROBORATE] | 0.499 | 25.71
17 | CCCC[N+](CCCC)(CCCC)CCCC.N#C[S-] [TETRABUTYLAMMONIUM THIOCYANATE] | 6.28 | 11.59
18 | CCCC[N+](CCCC)(CCCC)CCCC.O=S(=O)([O-])C(F)(F)F [TETRABUTYLAMMONIUM TRIFLUOROMETHANESULFONATE] | 0.067 | 64.94
19 | CCCC[N+](CCCC)(CCCC)CCCC.[Cl-] [TETRABUTYLAMMONIUM] | 0.382 | 23.58
